ChEMBL document CHEMBL5143510, “Structure modification and biological evaluation of indole-chalcone derivatives as anti-tumor agents through dual targeting tubulin and TrxR” (Eur J Med Chem, 2022)
The source made the active and inactive calls. No cut-off for these calls is given here.

Columns and labels:
[1] = Resistance index, ratio of IC50 for antiproliferative activity against adriamycin resistant human MCF7/ADR cells to IC50 for antiproliferative activity against human MCF7 cells; type: functional
[2] = Antiproliferative activity against paclitaxel resistant human A2780/PTX cells assessed as reduction in cell viability incubated for 48 hrs by MTT assay; type: functional, cell-based
[3] = Selectivity ratio, ratio of IC50 for cytotoxicity against human L02 cells to IC50 for antiproliferative activity against human MHCC97H cells; type: toxicity, cell-based; details: L02 cells versus MHCC97H cells, read-out: Ratio IC50
[4] = Inhibition of TrxR in human MHCC97H cells using DTNB as substrate preincubated for 4 hrs in presence of NADPH followed by substrate addition by microplate reader analysis; type: cell-based
[5] = system: MHCC97H; experiment: Induction of apoptosis in human MHCC97H cells assessed as downregulation of Bcl-xl expression at 5 to 50 nM measured after 24 to 48 hrs by Western blot analysis; type: functional, cell-based; details: dose 5-50 nM, time 24-48 hrs
[6] = system: MHCC97H; experiment: Induction of apoptosis in human MHCC97H cells assessed as chromatin condensation at 5 to 50 nM incubated for 24 hrs by Hoechst 33342 staining based fluorescence microscopy; type: functional, cell-based; details: dose 5-50 nM
[7] = system: MHCC97H; experiment: Antitumor activity against human MHCC97H cells xenografted in BALB/c mouse assessed as tumor growth inhibition at 30 mg/kg, ip administered every other day for 30 days; type: functional; details: 720 h, time 30 day, read-out: TGI
[8] = system: MHCC97H; experiment: Antitumor activity against human MHCC97H cells xenografted in BALB/c mouse assessed as tumor weight at 30 mg/kg, ip administered every other day for 30 days; type: functional; details: time 30 day
[9] = system: MHCC97H; experiment: Antitumor activity against human MHCC97H cells xenografted in BALB/c mouse assessed as tumor volume at 30 mg/kg, ip administered every other day for 30 days; type: functional; details: time 30 day
[10] = system: MHCC97H; experiment: Antiproliferative activity against human MHCC97H cells assessed as reduction in cell viability incubated for 48 hrs by MTT assay; type: functional, cell-based
[11] = species on record: Homo sapiens; experiment: Mixed type inhibition of TrxR (unknown origin) using various concentrations of DTNB as substrate at 1.875 to 15 uM preincubated for 15 mins followed by substrate addition by double reciprocal Lineweaver-Burk plot analysis; details: dose 1.875-15 µM
[12] = system: MHCC97H; experiment: Induction of apoptosis in human MHCC97H cells assessed as upregulation of Bax expression measured after 24 to 48 hrs by Western blot analysis; type: functional, cell-based; details: dose 5-50 nM, time 24-48 hrs, DDE = dose-dependent effect
[13] = target: T1, Tubulin (Homo sapiens) (UniProt P68371+Q9H4B7+P0DPH7+P68366+Q13509+Q71U36+P04350+Q3ZCM7+P07437+P68363+Q9BQE3+Q6PEY2+Q13885+Q9BVA1+Q9BUF5); experiment: Inhibition of colchicine binding to tubulin (unknown origin) at 0.156 uM by competitive binding assay relative to control; type: protein-complex assay
[14] = system: MHCC97H; experiment: Induction of apoptosis in human MHCC97H cells assessed as nucleus shrinkage at 5 to 50 nM incubated for 24 hrs by Hoechst 33342 staining based fluorescence microscopy; type: functional, cell-based; details: dose 5-50 nM
[15] = species on record: Homo sapiens; experiment: Irreversible inhibition of TrxR (unknown origin) using DTNB as substrate at 5 uM incubated for 2 hrs in presence of NADPH followed by substrate addition ultrafiltration based microplate reader analysis relative to control
[16] = target: T1, Tubulin (Homo sapiens); experiment: Inhibition of colchicine binding to tubulin (unknown origin) at 5.0 uM by competitive binding assay relative to control; type: protein-complex assay
[17] = system: MHCC97H; experiment: Induction of oxidative stress in human MHCC97H cells assessed as increase in superoxide anion level at 5 to 50 nM incubated for 4 hrs by DHE based fluorescence microscopy; type: functional, cell-based; details: dose 5-50 nM
[18] = system: HCT-8/VCR; experiment: Downregulation of TrxR in vincristine resistant human HCT-8/VCR cells at 10 to 50 nM incubated for 48 hrs by Western blot analysis; type: functional, cell-based; details: dose 10-50 nM
[19] = system: MHCC97H; experiment: Induction of apoptosis in human MHCC97H cells assessed as increase in total apoptotic cells at 5 to 50 nM by Annexin V-FITC/PI staining based flow cytometry method; type: functional, cell-based; details: dose 5-50 nM, time 24-48 hrs, TDE = time-dependent effect
[20] = system: NCI/ADR-RES; experiment: Downregulation of TrxR in adriamycin resistant human MCF7/ADR cells at 10 to 50 nM incubated for 48 hrs by Western blot analysis; type: functional, cell-based; details: dose 10-50 nM
[21] = Cytotoxicity against human L02 cells assessed as reduction in cell viability incubated for 48 hrs by MTT assay; type: toxicity, cell-based
[22] = target: T1, Tubulin (Homo sapiens); experiment: Inhibition of colchicine binding to tubulin (unknown origin) at 2.50 uM by competitive binding assay relative to control; type: protein-complex assay; details: dose 2.5 µM
[23] = system: MHCC97H; experiment: Induction of cell cycle arrest in human MHCC97H cells assessed as increase in accumulation of cells at G2/M phase at 5 to 50 nM measured after 48 hrs by propidium iodide staining based flow cytometry; type: functional; details: dose 5-50 nM
[24] = target: T1, Tubulin (Homo sapiens); experiment: Induction of microtubule disruption in human MHCC97H cells assessed as occurence of cell shrinkage at 10 nM incubated for 8 hrs followed by compound washout and measured after 24 hrs by immunofluorescence based confocal microscopic analysis
[25] = system: HCT-8; experiment: Antiproliferative activity against human HCT-8 cells assessed as reduction in cell viability incubated for 48 hrs by MTT assay; type: functional, cell-based; details: HCT-8, 48 h
[26] = system: MCF7; experiment: Antiproliferative activity against human MCF7 cells assessed as reduction in cell viability incubated for 48 hrs by MTT assay; type: functional, cell-based; details: MCF7, 48 h
[27] = system: MHCC97H; experiment: Induction of morphological changes in human MHCC97H cells assessed as membrane blebbing at 5 to 50 nM incubated for 48 hrs by phase contrast microscopic analysis; type: functional, cell-based; details: dose 5-50 nM
[28] = Cytotoxicity against human HUVEC cells assessed as reduction in cell viability incubated for 48 hrs by MTT assay; type: toxicity, cell-based
[29] = species on record: Homo sapiens; experiment: Irreversible inhibition of TrxR (unknown origin) using DTNB as substrate at 10 uM incubated for 2 hrs in presence of NADPH followed by substrate addition ultrafiltration based microplate reader analysis relative to control
[30] = system: A2780; experiment: Antiproliferative activity against human A2780 cells assessed as reduction in cell viability incubated for 48 hrs by MTT assay; type: functional, cell-based; details: A2780, 48 h
[31] = target: Tubulin; experiment: Inhibition of colchicine binding to tubulin (unknown origin) by competitive binding assay; type: protein-complex assay, Homo sapiens
[32] = system: MHCC97H; experiment: Induction of apoptosis in human MHCC97H cells assessed as increase in total apoptotic cells incubated for 24 to 48 hrs by Annexin V-FITC/PI staining based flow cytometry method; type: functional, cell-based; details: dose 5-50 nM, time 24-48 hrs, DDE = dose-dependent effect
[33] = species on record: Homo sapiens; experiment: Inhibition of TrxR (unknown origin) assessed as alkylation of TrxR by measuring weak band intensity using BIAM as substrate at 10 to 40 uM preincubated for 2 hrs in presence of NADPH followed by substrate addition and measured after 30 mins by Western blot analysis; details: dose 10-40 µM, time 2.5 hrs

Question: What does the source list for COc1ccc2c(/C=C(\C)C(=O)c3cc(OC)c(OC)c([Se]C)c3)c[nH]c2c1?
Answer: Ratio IC50 [1]: 0.51; IC50 [2]: 20 nM; selectivity ratio [3]: 66.3; IC50 [4]: 10200 nM; Activity [5]: Active; Activity [6]: Active; inhibition in vivo at 30 mg/kg [7]: 75.4%; Activity [8]: 0.453 g; Activity [9]: 419.7 mm3; IC50 [10]: 6 nM; inhibition [11]: Active; Activity [12]: Dde; inhibition [13]: 24.9%; Activity [14]: Active; inhibition [15]: 84%; inhibition [16]: 86.8%; Activity [17]: Active; Activity [18]: Active; Activity [19]: Tde; Activity [20]: Active; IC50 at 48 h [21]: 398 nM; inhibition [22]: 46.7%; Activity [23]: Active; Activity [24]: Active; IC50 [25]: 29 nM; IC50 [26]: 35 nM; Activity [27]: Active; IC50 at 48 h [28]: 56 nM; inhibition [29]: 91.4%; IC50 [30]: 18 nM; IC50 [31]: 1300 nM; Activity [32]: Dde; inhibition [33]: Active
